Patent US12128084B2, “Use of PAYCS in regulation of intestinal flora, metabolites, and brain neurotransmitters” (Sericulture and Agri-Food Research Institute, Guangdong …, priority 2022, dated 2024)

What was measured:
Format in all cases: in vivo
[1] = tested on: mice with amnesia induced by scopolamine; test: behavioral test (jumping test, swimming test; training part and test part) in scopolamine-induced amnesic mice
Procedure: The mice were tested for a jumping test (FIG. 1A), swimming speed (FIG. 1), swimming distance (FIG. 1C), the number of crossings on the target platform (FIG. 1D), the number of crossings on the target quadrants (FIG. 1E), the escape latency and the error times (FIG. 1F) during the training. In the test part, the swimming distance, the swimming speed, number of crossings on target quadrant (FIG. 1G), the number of crossings on the target platform, and escape latency (H) were determined. In these figures, #: compared with the control group, P<0.05; compared with the control group, P<0.01; *: compared model group, P<0.05; **: compared with the model group, P<0.01.
FIG. 7 is an experiment designed to evaluate the effect of PAYCS-L (lower dose of SEQ ID NO: 1) and PAYCS-H (higher dose of SEQ ID NO: 1) on learning and memory function in mice with amnesia induced by scopolamine.

[2] = tested on: IL-1β and TNF-α in liver and serum; test: liver and serum inflammatory indexes of amnesic mice
fecal metabolites = fecal metabolites of amnesic mice
From the text: The scores of variable importance in projection (VIP) for symbol ** and symbol *** are P<0.05, P<0.01, and P<0.001 respectively.

intestinal microflora = test: 16S rRNA analysis of intestinal microflora of amnesic mice
From the text: The symbols * and ** represent P<0.05 and P<0.01, respectively.

brain neurotransmitters = brain neurotransmitters of amnesic mice
[3] = tested on: MDA, LDH, SOD, GP(x) in liver and serum; test: liver and serum oxidation indexes of amnesic mice
[4] = PAYCS-H (higher dose), scopolamine-induced amnesic mice
[5] = scopolamine-induced amnesic mice

Substance: Pro-Ala-Tyr-Cys-Ser (PAYCS; sequence of the peptide ProAlaTyrCysSer)
- cognitive function in the test part of the behavioral test ([1]; PAYCS-H (0.4 g/kg bw, higher dose), 3 weeks of treatment, scopolamine-induced mouse model): better improvement
- memory enhancement in the training part of the behavioral test ([1]; PAYCS-L (0.2 g/kg bw, lower dose), 3 weeks of treatment, scopolamine-induced mouse model): better effect of memory enhancement
- memory deficits in amnesic mice ([1]; PAYCS-L (lower dose)): partially reverses
- scopolamine-induced memory impairment in mice ([1]; mouse, in vivo): remedies
- anti-inflammatory effect ([2]; PAYCS-H (higher dose)): good
- inflammatory stress in the liver and serum ([2]; PAYCS-H (higher dose)): reverses
- IL-1β in the liver [2, 4]: inhibit the increase
- TNF-α in the liver [2, 4]: inhibit the increase
- content of TNF-α in the liver ([2]; PAYCS-L (lower dose), scopolamine-induced amnesic mice, only TNF-α): reduces
- fecal metabolites (fecal metabolites; PAYCS-H (higher dose)): re-modulates
- memory-related metabolites (fecal metabolites; e.g. Panax notoginseng saponins and cholinergic acid): significantly up-regulated
- memory-related metabolites (fecal metabolites; e.g. blumealactone C, thalictroidine, notoginsenoside M, 3a,7a,12b-trihydroxy-5b-cholanoic acid, sequiterpene lactone 326, helenalin, cholic acid): significantly up-regulated
- fecal metabolites in amnesic mice (fecal metabolites; mouse, in vivo): regulatory effect
- relative abundance of Cacteroidaceae (intestinal microflora; 16S rRNA analysis): increased
- relative abundance of Prevotellaceae (intestinal microflora; 16S rRNA analysis): increased
- intestinal microorganisms (intestinal microflora; PAYCS-H (higher dose)): re-modulates
- abundance of intestinal microorganism population in amnesic mice (intestinal microflora; PAYCS-L (lower dose)): reconstitutes
- ratio of Bacteroidetes/Firmicutes (intestinal microflora; PAYCS-L (lower dose), 16S rRNA analysis): changed
- neurotransmitters (brain neurotransmitters; e.g. Ach, GABA, Glu, HisA, Kyn): significantly up-regulated
- brain neurotransmitters in amnesic mice (brain neurotransmitters; mouse, in vivo): regulatory effect
- tryptophan metabolism-related neurotransmitters in the brain (brain neurotransmitters; mouse, in vivo): improves
- antioxidant effect ([3]; PAYCS-H (higher dose)): good
- oxidative stress in the liver and serum ([3]; PAYCS-H (higher dose)): reverses
- liver and serum deficits ([3]; mouse, in vivo): positive effect
- LDH level in serum [3, 5]: significantly reduce
- MDA level in serum [3, 5]: significantly reduce
- SOD content in the liver [3, 5]: significantly increase
